# Results: US20100298141A1, “SUBSTITUTED PYRIDINE N-OXIDE HERBICIDES” (E. I. DU PONT DE NEMOURS AND COMPANY, priority 2007, published 2010)
# Key:
# morningglory [1] = test: Test A pre-/postemergence greenhouse test; type: in vivo, Ipomoea spp.; details: for Plant response rating, Morningglory: 0 to 100 scale where 0 is no effect and 100 is complete control; for Morningglory plant response rating: 0 to 100 scale
# How it was run: (§1)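 Seeds sown in a loam soil–sand blend got a preemergence directed soil spray of compound in a non-phytotoxic solvent mixture containing surfactant. Postemergence sprays of the same formulation went at the same time onto plants 2–10 cm tall at the one- to two-leaf stage. Injury was scored visually against untreated controls after about ten days in the greenhouse.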
# Goosegrass = test: Test C pre-/postemergence test; type: in vivo, Eleusin indica
# How it was run: (§2)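 Seeds were planted and treated preemergence with test chemical in a non-phytotoxic solvent mixture containing surfactant. Postemergence applications of the same formulation went onto plants 2 to 18 cm tall (1- to 4-leaf stage). A dash marks no test result.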
# crabgrass = test: Test A pre-/postemergence greenhouse test; type: in vivo, Digitaria sanguinalis; details: for Plant response rating, Crabgrass, Large: 0 to 100 scale where 0 is no effect and 100 is complete control; for Crabgrass, Large plant response rating: 0 to 100 scale
# How it was run: as §1
# wheat [2] = test: Test A pre-/postemergence greenhouse test; type: in vivo, Triticum aestivum; details: for Plant response rating, Wheat: 0 to 100 scale where 0 is no effect and 100 is complete control; for Wheat plant response rating: 0 to 100 scale
# How it was run: as §1
# Italian ryegrass = test: Test C pre-/postemergence test; type: in vivo, Lolium multiflorum; details: for Ryegrass, Italian plant response rating: preemergence, scale 0 (no effect) to 100 (complete control)
# How it was run: as §2
# morningglory [3] = test: Test C pre-/postemergence test; type: in vivo, Ipomoea coccinea
# How it was run: as §2
# bermudagrass = test: Test C pre-/postemergence test; type: in vivo, Cynodon dactylon
# How it was run: as §2
# giant foxtail = test: Test A pre-/postemergence greenhouse test; type: in vivo, Setaria faberi; details: for Plant response rating, Foxtail, Giant: 0 to 100 scale where 0 is no effect and 100 is complete control; for Foxtail, Giant plant response rating: 0 to 100 scale
# How it was run: as §1
# [4] = test system: common (oilseed) sunflower; test: Test C pre-/postemergence test; type: in vivo, Helianthus annuus
# How it was run: as §2
# wheat [5] = test: Test C pre-/postemergence test; type: in vivo, Triticum aestivum
# How it was run: as §2
# umbrella sedge = test: Test C flooded paddy test; type: in vivo, Cyperus difformis; details: Flood
# How it was run: (§3)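 In-water treatment: compound dosed into 3 cm flood over soil, water level unchanged throughout. Controls run alongside; visual assessment at day 13–15.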
# barnyardgrass = test: Test C flooded paddy test; type: in vivo, Echinochloa crus-galli; details: Flood
# How it was run: as §3
# pigweed = test: Test C pre-/postemergence test; type: in vivo, Amaranthus retroflexus; details: for Plant response rating (0 to 100), Pigweed / Plant response rating, Pigweed: Postemergence; for Plant response rating, Pigweed: scale 0 to 100, 0 no effect, 100 complete control
# How it was run: as §2
# soybean = test: Test C pre-/postemergence test; type: in vivo, Glycine max
# How it was run: as §2
# yellow nutsedge = test: Test C pre-/postemergence test; type: in vivo, Cyperus esculentus
# How it was run: as §2
# corn = test: Test A pre-/postemergence greenhouse test; type: in vivo, Zea mays; details: for Plant response rating, Corn: 0 to 100 scale where 0 is no effect and 100 is complete control; for Corn plant response rating: 0 to 100 scale
# How it was run: as §1
# [6] = Postemergence, 500 g ai/ha, 0 is no effect, 100 is complete control
# [7] = Preemergence, 125 g ai/ha, 0 no effect, 100 complete control
# [8] = 62 g ai/ha, Preemergence, scale 0 to 100
# [9] = 125 g ai/ha, preemergence, scale 0 (no effect) to 100 (complete control)
# [10] = Postemergence, 125 g ai/ha, scale 0 to 100, 0 no effect, 100 complete control
# [11] = Postemergence, 250 g ai/ha, scale 0 to 100, 0 no effect, 100 complete control
# [12] = Preemergence, 31 g ai/ha, scale 0 to 100 (0 no effect, 100 complete control)
# [13] = preemergence, 250 g ai/ha, scale 0 (no effect) to 100 (complete control)
# [14] = 62 g ai/ha, scale 0 to 100 (0 no effect, 100 complete control)
# [15] = 250 g ai/ha, scale 0 to 100, 0 no effect, 100 complete control, 13 to 15 days
smiles,measurement,setting,value
CC(Oc1c(CS(=O)(=O)c2cccc[n+]2[O-])c(C(F)(F)F)nn1C)C(F)(F)F (centres unmarked) [Compound 82],"Plant response rating, Morningglory","morningglory [1]; Postemergence, 125 g ai/ha",40
same,Morningglory plant response rating,morningglory [1]; [6],50
same,Morningglory plant response rating,morningglory [1]; [7],60
same,"Plant response rating, Morningglory","morningglory [1]; Preemergence, 500 g ai/ha",100
same,Goosegrass plant response rating,Goosegrass; [8],100
same,Goosegrass plant response rating,Goosegrass; [9],100
same,"Plant response rating (0 to 100), Goosegrass","Goosegrass; Postemergence, 31 g ai/ha",0
same,"Plant response rating (0 to 100), Goosegrass","Goosegrass; Postemergence, 62 g ai/ha",0
same,"Plant response rating, Goosegrass",Goosegrass; [10],10
same,"Plant response rating, Goosegrass",Goosegrass; [11],40
same,"Plant response rating, Goosegrass",Goosegrass; [12],90
same,Goosegrass plant response rating,Goosegrass; [13],100
same,"Plant response rating, Crabgrass, Large","crabgrass; Postemergence, 125 g ai/ha",80
same,"Crabgrass, Large plant response rating",crabgrass; [6],90
same,"Crabgrass, Large plant response rating",crabgrass; [7],80
same,"Plant response rating, Crabgrass, Large","crabgrass; Preemergence, 500 g ai/ha",100
same,"Plant response rating, Wheat","wheat [2]; Postemergence, 125 g ai/ha",30
same,Wheat plant response rating,wheat [2]; [6],60
same,Wheat plant response rating,wheat [2]; [7],30
same,"Plant response rating, Wheat","wheat [2]; Preemergence, 500 g ai/ha",70
same,"Ryegrass, Italian plant response rating",Italian ryegrass; 125 g ai/ha,80
same,"Plant response rating (0 to 100), Ryegrass, Italian","Italian ryegrass; Postemergence, 31 g ai/ha",0
same,"Plant response rating (0 to 100), Ryegrass, Italian","Italian ryegrass; Postemergence, 62 g ai/ha",0
same,"Plant response rating, Ryegrass, Italian",Italian ryegrass; [10],85
same,"Plant response rating, Ryegrass, Italian",Italian ryegrass; [11],90
same,"Plant response rating, Ryegrass, Italian",Italian ryegrass; [12],75
same,"Ryegrass, Italian plant response rating",Italian ryegrass; 250 g ai/ha,100
same,Morningglory plant response rating,morningglory [3]; [8],70
same,Morningglory plant response rating,morningglory [3]; [9],98
same,"Plant response rating (0 to 100), Morningglory","morningglory [3]; Postemergence, 31 g ai/ha",0
same,"Plant response rating (0 to 100), Morningglory","morningglory [3]; Postemergence, 62 g ai/ha",0
same,"Plant response rating, Morningglory",morningglory [3]; [10],0
same,"Plant response rating, Morningglory",morningglory [3]; [11],0
same,"Plant response rating, Morningglory",morningglory [3]; [12],0
same,Morningglory plant response rating,morningglory [3]; [13],100
same,Bermudagrass plant response rating,"bermudagrass; 62 g ai/ha, Preemergence, scale 0 to 100 (0 no effect, 100 complete control)",100
same,Bermudagrass plant response rating,bermudagrass; [9],100
same,"Plant response rating (0 to 100), Bermudagrass","bermudagrass; Postemergence, 31 g ai/ha",0
same,"Plant response rating (0 to 100), Bermudagrass","bermudagrass; Postemergence, 62 g ai/ha",0
same,"Plant response rating, Bermudagrass",bermudagrass; [10],0
same,"Plant response rating, Bermudagrass",bermudagrass; [11],0
same,"Plant response rating, Bermudagrass",bermudagrass; [12],100
same,Bermudagrass plant response rating,bermudagrass; [13],100
same,"Plant response rating, Foxtail, Giant","giant foxtail; Postemergence, 125 g ai/ha",90
same,"Foxtail, Giant plant response rating",giant foxtail; [6],90
same,"Foxtail, Giant plant response rating",giant foxtail; [7],100
same,"Plant response rating, Foxtail, Giant","giant foxtail; Preemergence, 500 g ai/ha",100
same,Sunflower plant response rating,[4]; [8],0
same,Sunflower plant response rating,[4]; [9],45
same,"Plant response rating, Sunflower",[4]; [12],0
same,Sunflower plant response rating,[4]; [13],50
same,Wheat plant response rating,wheat [5]; [8],20
same,Wheat plant response rating,wheat [5]; [9],30
same,"Plant response rating (0 to 100), Wheat","wheat [5]; Postemergence, 31 g ai/ha",0
same,"Plant response rating (0 to 100), Wheat","wheat [5]; Postemergence, 62 g ai/ha",20
same,"Plant response rating, Wheat",wheat [5]; [10],25
same,"Plant response rating, Wheat",wheat [5]; [11],35
same,"Plant response rating, Wheat",wheat [5]; [12],10
same,Wheat plant response rating,wheat [5]; [13],60
same,"Plant response rating, Sedge, Umbrella",umbrella sedge; [14],100
same,"Plant response rating, Sedge, Umbrella",umbrella sedge; [15],100
same,"Plant response rating, Barnyardgrass",barnyardgrass; [14],0
same,"Plant response rating, Barnyardgrass",barnyardgrass; [15],80
same,Pigweed plant response rating,pigweed; [8],85
same,Pigweed plant response rating,pigweed; [9],100
same,"Plant response rating (0 to 100), Pigweed",pigweed; 31 g ai/ha,0
same,"Plant response rating (0 to 100), Pigweed",pigweed; 62 g ai/ha,0
same,"Plant response rating, Pigweed",pigweed; 125 g ai/ha,0
same,"Plant response rating, Pigweed",pigweed; 250 g ai/ha,10
same,Pigweed plant response rating,pigweed; [13],100
same,Soybean plant response rating,soybean; [8],30
same,"Plant response rating (0 to 100), Soybean","soybean; Postemergence, 31 g ai/ha",0
same,"Plant response rating (0 to 100), Soybean","soybean; Postemergence, 62 g ai/ha",0
same,"Plant response rating, Soybean",soybean; [10],0
same,"Plant response rating, Soybean",soybean; [11],20
same,"Plant response rating, Soybean",soybean; [12],0
same,Soybean plant response rating,soybean; [13],70
same,"Nutsedge, Yellow plant response rating",yellow nutsedge; [8],60
same,"Nutsedge, Yellow plant response rating",yellow nutsedge; [9],75
same,"Plant response rating (0 to 100), Nutsedge, Yellow","yellow nutsedge; Postemergence, 31 g ai/ha",0
same,"Plant response rating (0 to 100), Nutsedge, Yellow","yellow nutsedge; Postemergence, 62 g ai/ha",0
same,"Plant response rating, Nutsedge, Yellow",yellow nutsedge; [10],0
same,"Plant response rating, Nutsedge, Yellow",yellow nutsedge; [11],0
same,"Plant response rating, Nutsedge, Yellow",yellow nutsedge; [12],40
same,"Nutsedge, Yellow plant response rating",yellow nutsedge; [13],100
same,"Plant response rating, Corn","corn; Postemergence, 125 g ai/ha",0
same,Corn plant response rating,corn; [6],20
same,Corn plant response rating,corn; [7],0
same,"Plant response rating, Corn","corn; Preemergence, 500 g ai/ha",50
